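Each compound was tested at five concentrations against cells in 96-well plates for 48 hours. Here, GI50 denotes the concentration required for 50% inhibition of growth. TGI: total growth inhibition.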
Experiments:
Experiment in all cases: DTP human tumour cell line panel, 48 h
[1] = system: 786-0 renal
[2] = system: A498 renal
[3] = system: A549 NSCLC
[4] = system: ACHN renal
[5] = system: CAKI-1 renal
[6] = system: CCRF-CEM leukemia
[7] = system: COLO 205 colon
[8] = system: DU-145 prostate
[9] = system: EKVX NSCLC
[10] = system: HCC-2998 colon
[11] = system: HCT-116 colon
[12] = system: HCT-15 colon
[13] = system: HL-60(TB) leukemia
[14] = system: HOP-62 NSCLC
[15] = system: HOP-92 NSCLC
[16] = system: HS 578T breast
[17] = system: HT29 colon
[18] = system: IGROV1 ovarian
[19] = system: K-562 leukemia
[20] = system: KM12 colon
[21] = system: LOX IMVI melanoma
[22] = system: M14 melanoma
[23] = system: MALME-3M melanoma
[24] = system: MCF7 breast
[25] = system: MDA-MB-231 breast
[26] = system: MDA-MB-435
[27] = system: MOLT-4 leukemia
[28] = system: NCI-H226 lung
[29] = system: NCI-H23 lung
[30] = system: NCI-H460 lung
[31] = system: NCI-H522 lung
[32] = system: NCI/ADR-RES ovarian
[33] = system: OVCAR-3 ovarian
[34] = system: OVCAR-4 ovarian
[35] = system: OVCAR-5 ovarian
[36] = system: OVCAR-8 ovarian
[37] = system: PC-3 prostate
[38] = system: RPMI-8226 leukemia
[39] = system: RXF 393 renal
[40] = system: SF-268 CNS
[41] = system: SF-295 CNS
[42] = system: SF-539 CNS
[43] = system: SK-MEL-2 melanoma
[44] = system: SK-MEL-28 melanoma
[45] = system: SK-MEL-5 melanoma
[46] = system: SK-OV-3 ovarian
[47] = system: SN12C renal
[48] = system: SNB-19 CNS
[49] = system: SNB-75 CNS
[50] = system: SW-620 colon
[51] = system: T-47D breast
[52] = system: TK-10 renal
[53] = system: U251 CNS
[54] = system: UACC-257 melanoma
[55] = system: UACC-62 melanoma
[56] = system: UO-31 renal

## CCOC(=O)c1c2c(n3cccc(F)c13)C(=O)c1ncccc1C2=O
[1]
  GI50: 114 nM
  TGI: 4990 nM
[2]
  TGI: 21700 nM
[3]
  GI50: 217 nM
  TGI: 1670 nM
[4]
  GI50: 79.1 nM
  TGI: 2430 nM
[5]
  GI50: 56.2 nM
  TGI: 21800 nM
[6]
  GI50: 3710 nM
  TGI: 37500 nM
[7]
  GI50: 1270 nM
  TGI: 7200 nM
[8]
  GI50: 76.1 nM
  TGI: 2840 nM
[9]
  GI50: 1070 nM
  TGI: 15800 nM
[10]
  GI50: 1290 nM
  TGI: 15400 nM
[11]
  GI50: 317 nM
  TGI: 3910 nM
[12]
  GI50: 24.7 nM
  TGI: 12200 nM
[13]
  GI50: 1030 nM
  TGI: 3690 nM
[14]
  GI50: 49.4 nM
  TGI: 5170 nM
[15]
  GI50: 2220 nM
  TGI: 9240 nM
[16]
  GI50: 36.2 nM
  TGI: 25600 nM
[17]
  GI50: 1340 nM
  TGI: 5420 nM
[18]
  GI50: 1600 nM
  TGI: 24900 nM
[19]
  GI50: 357 nM
  TGI: > 100000 nM
[20]
  GI50: 539 nM
  TGI: 18900 nM
[21]
  GI50: 93.2 nM
  TGI: 1920 nM
[22]
  GI50: 49 nM
  TGI: 1290 nM
[23]
  GI50: 541 nM
  TGI: 6770 nM
[24]
  GI50: 57.2 nM
  TGI: 1270 nM
[25]
  GI50: 4140 nM
  TGI: 64700 nM
[26]
  GI50: 541 nM
  TGI: 10700 nM
[27]
  GI50: 3060 nM
  TGI: 23700 nM
[28]
  GI50: 510 nM
  TGI: 5110 nM
[29]
  GI50: 173 nM
  TGI: 3090 nM
[30]
  GI50: 26.3 nM
  TGI: 1120 nM
[31]
  GI50: 394 nM
  TGI: 3770 nM
[32]
  GI50: 436 nM
  TGI: 6820 nM
[33]
  GI50: 220 nM
  TGI: 2420 nM
[34]
  GI50: 1800 nM
  TGI: 11300 nM
[35]
  GI50: 1160 nM
  TGI: 18700 nM
[36]
  GI50: 1170 nM
  TGI: 7470 nM
[37]
  GI50: 449 nM
  TGI: 7630 nM
[38]
  GI50: 1910 nM
  TGI: 37300 nM
[39]
  GI50: 412 nM
  TGI: 4100 nM
[40]
  GI50: 96.3 nM
  TGI: 28200 nM
[41]
  GI50: 500 nM
  TGI: 3690 nM
[42]
  GI50: 157 nM
  TGI: 1350 nM
[43]
  GI50: 4810 nM
  TGI: 73700 nM
[44]
  GI50: 486 nM
  TGI: 19400 nM
[45]
  GI50: 99.4 nM
  TGI: 3220 nM
[46]
  GI50: 223 nM
  TGI: 16300 nM
[47]
  GI50: 457 nM
  TGI: 17600 nM
[48]
  GI50: 70.3 nM
  TGI: 4490 nM
[49]
  GI50: 1720 nM
  TGI: 64900 nM
[50]
  GI50: 151 nM
  TGI: 11300 nM
[51]
  GI50: 3530 nM
  TGI: 25200 nM
[52]
  GI50: 216 nM
  TGI: 27200 nM
[53]
  GI50: 41.1 nM
  TGI: 1390 nM
[54]
  GI50: 849 nM
  TGI: 6370 nM
[55]
  GI50: 222 nM
  TGI: 1280 nM
[56]
  GI50: 18.9 nM
  TGI: 1420 nM

Reference: PubChem BioAssay (NCI)
